Source: patent publication US11753407B2, “Compounds for treating spinal muscular atrophy” (PTC Therapeutics, Inc., priority 2012, dated 2023)

Key:
[1] = test system: Smn protein in SMA patient fibroblast cells (GM03813); experiment: Smn protein assay in cultured cells (SMN HTRF); format: cell-based, human; conditions: SMA patient fibroblast cells, 48 hours; for EC1.5x for Smn protein expression: 7-point concentration curve, SMN HTRF, concentration producing 1.5 times Smn protein vs DMSO vehicle control; for maximum fold (Fold) increase of Smn protein: 7-point concentration data, fold relative to vehicle control
In short: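 Smn protein quantified by HTRF with anti-SMN d2/kryptate pair, 665/620 nm ratio blank-corrected, in RIPA lysates of GM03813 fibroblasts after 48 h compound exposure (7 concentrations, 3.16-fold steps, triplicates). Values: concentration producing 1.5× vehicle Smn level, and maximal fold increase.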

[2] = test system: SMN2 minigene mRNA (SMN2-A minigene) in HEK293H cells; experiment: SMN2 minigene mRNA splicing RT-qPCR assay in cultured cells; format: cell-based, human; conditions: Homo sapiens, HEK293-H; concentration increasing full length SMN2 mRNA 1.5-fold relative to vehicle-treated cells; HEK293H cells with SMN2-A minigene, 24 hours, 7-point concentration data; read-out: EC1.5x for production of full length SMN2 mRNA
In short: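 EC1.5× = concentration raising full-length SMN2 minigene mRNA 1.5-fold over vehicle, from 7-point curves in duplicate. Stably transfected HEK293H cells exposed 24 h at 37 °C; lysates assayed by multiplex RT-qPCR, minigene FL signal normalized to GAPDH via modified ΔΔCt.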

Structure (SMILES)	melting point [°C]	EC1.5x for Smn protein expression [1]	maximum fold (Fold) increase of Smn protein [1]	EC (1.5-fold increase) [2] [µM]
Cc1cn2nc(-c3cc(=O)n4cc(N5CCN[C@H](C)C5)cc(C)c4n3)cc2c(C)n1 [Compound 509, 2-(4,6-dimethylpyrazolo[1,5-a]pyrazin-2-yl)-9-methyl-7-[(3R)-3-methylpiperazin-1-yl]-4H-pyrido[1,2-a]pyrimidin-4-one]	213 to 222	*** (an EC1.5× between >0.3 μM and ≤1 μM is indicated by three stars (***))	**** (a fold increase between >1.5 and ≤1.65 is indicated by four stars (****))	< 0.1
Cc1cn2nc(-c3cc(=O)n4cc(N5CCN(C)[C@H](C)C5)cc(C)c4n3)cc2c(C)n1 [Compound 510, 7-[(3R)-3,4-dimethylpiperazin-1-yl]-2-(4,6-dimethylpyrazolo[1,5-a]pyrazin-2-yl)-9-methyl-4H-pyrido[1,2-a]pyrimidin-4-one]	244 to 253	**** (an EC1.5x≤0.3 μM is indicated by four stars (****))	***** (a fold increase >1.65 is indicated by five stars (*****))	< 0.1
CCN1CCN(c2cc(C)c3nc(-c4cc5c(C)nc(C)cn5n4)cc(=O)n3c2)C[C@H]1C [Compound 511, 2-(4,6-dimethylpyrazolo[1,5-a]pyrazin-2-yl)-7-[(3R)-4-ethyl-3-methylpiperazin-1-yl]-9-methyl-4H-pyrido[1,2-a]pyrimidin-4-one]	240 to 245	** (an EC1.5× between >1 μM and ≤3 μM is indicated by two stars (**))	**** (a fold increase between >1.5 and ≤1.65 is indicated by four stars (****))	< 0.1
Cc1cn2nc(-c3cc(=O)n4nc(C5CCN(C)CC5)ccc4n3)cc2c(C)n1 [Compound 513, 2-(4,6-dimethylpyrazolo[1,5-a]pyrazin-2-yl)-7-(1-methylpiperidin-4-yl)-4H-pyrimido[1,2-b]pyridazin-4-one]	265 to 267	**** (an EC1.5x≤0.3 μM is indicated by four stars (****))	***** (a fold increase >1.65 is indicated by five stars (*****))	0.1 to 0.3
CCN1CCC(c2ccc3nc(-c4cc5c(C)nc(C)cn5n4)cc(=O)n3n2)CC1 [Compound 514, 2-(4,6-dimethylpyrazolo[1,5-a]pyrazin-2-yl)-7-(1-ethylpiperidin-4-yl)-4H-pyrimido[1,2-b]pyridazin-4-one]	283 to 285	** (an EC1.5× between >1 μM and ≤3 μM is indicated by two stars (**))	***** (a fold increase >1.65 is indicated by five stars (*****))	0.1 to 0.3
Cc1cn2nc(-c3cc(=O)n4cc(N5CCC6NCCC6C5)ccc4n3)cc2c(C)n1 (centres unmarked) [Compound 515, 2-(4,6-dimethylpyrazolo[1,5-a]pyrazin-2-yl)-7-(octahydro-5H-pyrrolo[3,2-c]pyridin-5-yl)-4H-pyrido[1,2-a]pyrimidin-4-one]	198 to 200	**** (an EC1.5x≤0.3 μM is indicated by four stars (****))	***** (a fold increase >1.65 is indicated by five stars (*****))	< 0.1
Cc1cn2cc(-c3cc(=O)n4cc(C5CCNCC5)ccc4n3)cc(Cl)c2n1 [Compound 516, 2-(8-chloro-2-methylimidazo[1,2-a]pyridin-6-yl)-7-(piperidin-4-yl)-4H-pyrido[1,2-a]pyrimidin-4-one]	287 to 293	**** (an EC1.5x≤0.3 μM is indicated by four stars (****))	**** (a fold increase between >1.5 and ≤1.65 is indicated by four stars (****))	< 0.1
Cc1cn2cc(-c3cc(=O)n4cc(C5CCN(C)CC5)ccc4n3)cc(Cl)c2n1 [Compound 517, 2-(8-chloro-2-methylimidazo[1,2-a]pyridin-6-yl)-7-(1-methylpiperidin-4-yl)-4H-pyrido[1,2-a]pyrimidin-4-one]	292 to 296	**** (an EC1.5x≤0.3 μM is indicated by four stars (****))	***** (a fold increase >1.65 is indicated by five stars (*****))	< 0.1
CCN1CCC(c2ccc3nc(-c4cc(Cl)c5nc(C)cn5c4)cc(=O)n3c2)CC1 [Compound 518, 2-(8-chloro-2-methylimidazo[1,2-a]pyridin-6-yl)-7-(1-ethylpiperidin-4-yl)-4H-pyrido[1,2-a]pyrimidin-4-one]	240 to 246	**** (an EC1.5x≤0.3 μM is indicated by four stars (****))	**** (a fold increase between >1.5 and ≤1.65 is indicated by four stars (****))	< 0.1
Cc1cn2cc(-c3cc(=O)n4cc(C5CCN(C(C)C)CC5)ccc4n3)cc(Cl)c2n1 [Compound 519, 2-(8-chloro-2-methylimidazo[1,2-a]pyridin-6-yl)-7-[1-(propan-2-yl)piperidin-4-yl]-4H-pyrido[1,2-a]pyrimidin-4-one]	279 to 285	**** (an EC1.5x≤0.3 μM is indicated by four stars (****))	***** (a fold increase >1.65 is indicated by five stars (*****))	< 0.1
CN1CCC(c2ccc3nc(-c4ccc5nn(C)cc5c4)cc(=O)n3n2)CC1 [Compound 522, 2-(2-methyl-2H-indazol-5-yl)-7-(1-methylpiperidin-4-yl)-4H-pyrimido[1,2-b]pyridazin-4-one]	260 to 262	*** (an EC1.5× between >0.3 μM and ≤1 μM is indicated by three stars (***))	***** (a fold increase >1.65 is indicated by five stars (*****))	< 0.1
CCN1CCC(c2ccc3nc(-c4ccc5nn(C)cc5c4)cc(=O)n3n2)CC1 [Compound 523, 7-(1-ethylpiperidin-4-yl)-2-(2-methyl-2H-indazol-5-yl)-4H-pyrimido[1,2-b]pyridazin-4-one]	253 to 255	**** (an EC1.5x≤0.3 μM is indicated by four stars (****))	***** (a fold increase >1.65 is indicated by five stars (*****))	< 0.1
Cc1cn2cc(-c3cc(=O)n4nc(C5CCN(C)CC5)ccc4n3)cc(Cl)c2n1 [Compound 524, 2-(8-chloro-2-methylimidazo[1,2-a]pyridin-6-yl)-7-(1-methylpiperidin-4-yl)-4H-pyrimido[1,2-b]pyridazin-4-one]	289 to 291	*** (an EC1.5× between >0.3 μM and ≤1 μM is indicated by three stars (***))	***** (a fold increase >1.65 is indicated by five stars (*****))	0.1 to 0.3
CCN1CCC(c2ccc3nc(-c4cc(Cl)c5nc(C)cn5c4)cc(=O)n3n2)CC1 [Compound 525, 2-(8-chloro-2-methylimidazo[1,2-a]pyridin-6-yl)-7-(1-ethylpiperidin-4-yl)-4H-pyrimido[1,2-b]pyridazin-4-one]	284 to 286	*** (an EC1.5× between >0.3 μM and ≤1 μM is indicated by three stars (***))	***** (a fold increase >1.65 is indicated by five stars (*****))	0.1 to 0.3
Cc1cn2cc(-c3cc(=O)n4nc(C5CCN(CCO)CC5)ccc4n3)cc(Cl)c2n1 [Compound 526, 2-(8-chloro-2-methylimidazo[1,2-a]pyridin-6-yl)-7-[1-(2-hydroxyethyl)piperidin-4-yl]-4H-pyrimido[1,2-b]pyridazin-4-one]	255 to 257	** (an EC1.5× between >1 μM and ≤3 μM is indicated by two stars (**))	***** (a fold increase >1.65 is indicated by five stars (*****))	0.3 to 1
Cc1cc2cc(-c3cc(=O)n4cc(N5C[C@@H](C)N[C@@H](C)C5)ccc4n3)oc2c(C)n1 [Compound 527, 2-(5,7-dimethylfuro[2,3-c]pyridin-2-yl)-7-[(3R,5S)-3,5-dimethylpiperazin-1-yl]-4H-pyrido[1,2-a]pyrimidin-4-one]	260 to 262	**** (an EC1.5x≤0.3 μM is indicated by four stars (****))	***** (a fold increase >1.65 is indicated by five stars (*****))	< 0.1
Cc1cc2cc(-c3cc(=O)n4cc(N5CCC(N(C)C)CC5)ccc4n3)oc2c(C)n1 [Compound 528, 7-[4-(dimethylamino)piperidin-1-yl]-2-(5,7-dimethylfuro[2,3-c]pyridin-2-yl)-4H-pyrido[1,2-a]pyrimidin-4-one]	200 to 202	**** (an EC1.5x≤0.3 μM is indicated by four stars (****))	**** (a fold increase between >1.5 and ≤1.65 is indicated by four stars (****))	< 0.1
